System: Caucasian patients with schizophrenia (CATIE)
Assay: Genetic association (linear regression, additive model) of SNP alleles with MMRM-modelled change in PANSS Total Score under antipsychotic treatment, CATIE trial
Format: in vivo, human

## OCCOCCN1CCN(C2=Nc3ccccc3Sc3ccccc32)CC1 [Quetiapine, quetiapine]
ITPR2 rs11048710 allele A, P 3.74E−02
  Beta (PANSS): −3.75 PANSS
IYD rs2076286 allele A, P 4.24E−02
  Beta (PANSS): −6.69 PANSS
JAG1 rs6074164 allele A, P 3.54E−02
  Beta (PANSS): −4.59 PANSS
KCNB1 rs34467662 allele C, P 2.39E−02
  Beta (PANSS): −9.06 PANSS
KCNIP4 rs10516363 allele A, P 3.20E−02
  Beta (PANSS): −3.43 PANSS
KCNQ1 rs422314 allele C, P 3.83E−02
  Beta (PANSS): −3.18 PANSS
KCNQ3 rs17659416 allele A, P 2.67E−02
  Beta (PANSS): −4.39 PANSS
LDB2 rs3805320 allele A, P 3.90E−02
  Beta (PANSS): −3.16 PANSS
LRFN2 rs2078460 allele A, P 3.06E−02
  Beta (PANSS): −3.67 PANSS
LRP1B rs2380943 allele C, P 1.96E−02
  Beta (PANSS): −3.47 PANSS
LRP1B rs34488772 allele A, P 2.80E−02
  Beta (PANSS): −8.41 PANSS
MCPH1 rs2515509 allele C, P 2.44E−02
  Beta (PANSS): −5.16 PANSS
MSR1 rs6981231 allele C, P 2.17E−02
  Beta (PANSS): −7.67 PANSS
MYO10 rs26317 allele A, P 2.25E−02
  Beta (PANSS): −3.80 PANSS
NCAM2 rs12483671 allele A, P 4.38E−02
  Beta (PANSS): −3.47 PANSS
NLGN1 rs2861338 allele A, P 2.69E−02
  Beta (PANSS): −3.51 PANSS
NPAS3 rs927763 allele G, P 3.26E−02
  Beta (PANSS): −4.45 PANSS
NRG3 rs12767532 allele G, P 2.93E−02
  Beta (PANSS): −3.66 PANSS
OPCML rs3018407 allele A, P 2.60E−02
  Beta (PANSS): −3.48 PANSS
OPCML rs3019855 allele C, P 3.16E−02
  Beta (PANSS): −3.40 PANSS
OPCML rs3920986 allele G, P 2.33E−02
  Beta (PANSS): −3.72 PANSS
PARD3B rs7589114 allele C, P 4.08E−02
  Beta (PANSS): −3.18 PANSS
PCDH15 rs2384470 allele C, P 2.33E−03
  Beta (PANSS): −5.21 PANSS
PIKFYVE rs17699982 allele A, P 4.51E−02
  Beta (PANSS): −4.12 PANSS
PLCG2 rs4889447 allele C, P 3.48E−02
  Beta (PANSS): −5.77 PANSS
PLXDC2 rs989767 allele A, P 4.48E−02
  Beta (PANSS): −3.31 PANSS
PRKG1 rs1904018 allele C, P 2.81E−02
  Beta (PANSS): −3.09 PANSS
PTPRT rs876523 allele C, P 2.06E−02
  Beta (PANSS): −3.45 PANSS
RGS7 rs2678780 allele A, P 2.47E−03
  Beta (PANSS): −4.56 PANSS
RGS7 rs10802943 allele C, P 3.52E−02
  Beta (PANSS): −2.99 PANSS
RIMBP2 rs12305517 allele C, P 2.16E−02
  Beta (PANSS): −5.62 PANSS
ROBO2 rs1470571 allele C, P 3.50E−02
  Beta (PANSS): −3.69 PANSS
RPRD1A rs4799835 allele A, P 4.31E−02
  Beta (PANSS): −3.76 PANSS
SAMD4A rs8011374 allele C, P 3.60E−02
  Beta (PANSS): −3.17 PANSS
SDK2 rs4969114 allele A, P 2.22E−02
  Beta (PANSS): −3.33 PANSS
SGCZ rs12155874 allele A, P 3.89E−02
  Beta (PANSS): −3.08 PANSS
SHC3 rs10122011 allele C, P 2.47E−02
  Beta (PANSS): −3.43 PANSS
SLC35F3 rs12087906 allele G, P 3.30E−02
  Beta (PANSS): −9.04 PANSS
SORBS1 rs4572071 allele A, P 3.25E−02
  Beta (PANSS): −3.66 PANSS
SORBS1 rs4918911 allele C, P 4.32E−02
  Beta (PANSS): −3.34 PANSS
ST8SIA1 rs4606528 allele C, P 3.26E−02
  Beta (PANSS): −3.84 PANSS
STX11 rs3734228 allele C, P 3.21E−02
  Beta (PANSS): −9.67 PANSS
STX11 rs6912580 allele C, P 3.21E−02
  Beta (PANSS): −9.67 PANSS
TGIF1 rs12606927 allele A, P 4.02E−02
  Beta (PANSS): −3.49 PANSS
TMC1 rs10869183 allele T, P 2.41E−02
  Beta (PANSS): −3.43 PANSS
TMTC2 rs7974520 allele A, P 3.49E−02
  Beta (PANSS): −3.64 PANSS
TRIM9 rs882413 allele C, P 2.00E−02
  Beta (PANSS): −4.35 PANSS
TSC1 rs1050700 allele A, P 4.13E−02
  Beta (PANSS): −3.29 PANSS
USP10 rs2012708 allele C, P 3.86E−02
  Beta (PANSS): −3.05 PANSS
WWOX rs7203676 allele C, P 2.23E−02
  Beta (PANSS): −3.87 PANSS

Reference: US20160122821A1, “GENETIC MARKERS OF ANTIPSYCHOTIC RESPONSE” (SUREGENE, LLC, priority 2013, published 2016)
